Earlier results as cited in patent US4285947A, “Aldehyde adducts of triamterene” (INTERx Research Corporation, priority 1980, dated 1981).
In brackets after ≈: the same amount, converted by molar mass.

Tests used:
[1] = not given; remark: listed apart in the source
[2] = following the recommended clinical dose

Nc1nc(N)c2nc(-c3ccccc3)c(N)nc2n1 [triamterene, 2,4,7-triamino-6-phenylpteridine]
aqueous solubility: 45 µg/mL (≈ 178 µM)
solubility in lipid-like solvents [1]: limited solubility
plasma and urine concentration [2]: extremely low
